US10548897B2, “KSR antagonists” (Icahn School of Medicine at Mount Sinai, priority 2015, dated 2020)

Experiments:
[1] = system: KSR-stimulated MEK and ERK phosphorylation; assay: Cell-based reconstitution system monitoring KSR-driven MAPK signaling
From the text: To assess the biological function of lead compounds as Ras-MAPK pathway antagonists, a simplified cell-based reconstitution system was developed to directly monitor KSR-driven MAPK signaling. […] Based on similarity in phenotype and direct-binding activity, Compound 21 was identified as a small molecule mimic of KSR alleles that suppress oncogenic Ras mutations.

KSR2:B-RAF^F667E dimers = KSR2:B-RAF^F667E dimers (Homo sapiens, UniProt Q6VAB6); assay: Biolayer inferometry of KSR2:B-RAF dimerization (Octet Red96); format: binding; conditions: compound at 25 μM
Method: B-RAF and B-RAF mutants (F667E+/−R509H) were immobilized on sensor-heads and KSR2:MEK1 or MEK1 assembly was monitored. Curves indicate dose ranges of KSR2:MEK1 or MEK1 from 625 nM to 10 μM. In all plots, association occurred from 0 to 660 seconds, and dissociation was monitored thereafter up to 1500 seconds. Compound 21 and trametinib were added in the presence of KSR2:MEK1 at a concentration of 25 μM each.
To directly investigate the impact of Compound 21 on KSR2:B-RAF dimerization, bio-layer inferometry (BLI) was utilized to monitor real-time association and dissociation of KSR2:MEK1 or free MEK1 to a sensor tethered with immobilized B-RAF.
To specifically monitor KSR2:B-RAF dimerization relative to other possible interactions, a mutation in B-RAF^F667E was identified that eliminates binding to free MEK but not KSR2-MEK1 complexes, as shown in FIGS. 7C-7D. […]
Interactions between purified B-RAF and the KSR2:MEK1 complex were measured using biolayer inferometry on the Octet Red96 system (Forte Bio). […] Association and dissociation was monitored over 660 and 840 seconds, respectively. Data sets were normalized and analysed using global fit binding models (Fortebio software). […]

MEK = assay: Inhibitory activity against purified MEK; format: biochemical
HEK293 cells = assay: FBS-induced ERK activation in serum-starved HEK293 cells; format: cell-based; conditions: 2 h pre-treatment, 5% FBS induction, compared with KSR1 siRNA
Method: FIGS. 10A-10B show KSR1 knockdown and Compound 21 treatment similarly block FBS-induced ERK activation. In FIG. 10A, HEK293 cells were serum starved for 24 hours and simultaneously treated with two independent siRNAs against KSR1. siNTC was used as a scrambled control. After induction with 5% FBS, cells were harvested at […]. In FIG. 10B, HEK293 cells were similarly serum starved and pre-treated with Compound 21 for 2 h before induction. The cells were then induced with FBS as in FIG. 10A.

Q: Which results are given for `COc1cc2ncnc(Nc3ccc(Oc4ccccc4)cc3C)c2cc1OC` [Compound 21, 6,7-Dimethoxy-N-(2-methyl-4-phenoxyphenyl)quinazolin-4-amine 2,2,2-trifluoroacetate]?
A: suppression of KSR-stimulated MEK and ERK phosphorylation ([1]; KSR expression-dependent MAPK signaling): suppressed; suppression of KSR-stimulated MAPK signaling with active site mutant KSR^A690F ([1]; KSR^A690F mutant): greatly diminished the activity; association of KSR2:MEK1 with immobilized B-RAF^F667E (KSR2:B-RAF^F667E dimers): did not associate; inhibitory activity against purified MEK (MEK): lacked detectable inhibitory activity; effect on FBS-induced ERK activation (HEK293 cells): mimic the effects of RNAi based knockdown of KSR1
